Molecular target: Human immunodeficiency virus type 1 protease (Human immunodeficiency virus 1, UniProt Q72874)
Assay: Inhibitory activity of compound against HIV-1 aspartyl protease.
Details: read-out: Log 1/Ki (converted)

`CNc1cc(CN2C(=O)N(Cc3ccc(F)c(NC)c3)[C@H](Cc3ccccc3)[C@H](O)[C@H]2CCc2ccccc2)ccc1F` was tested, and the Ki was 4.91 nM.

Source: ChEMBL document CHEMBL1134992, “Six-membered cyclic ureas as HIV-1 protease inhibitors: a QSAR study based on CODESSA PRO approach. Quantitative structure-activity relationships” (Bioorg Med Chem Lett, 2002)
